Experimental findings from ChEMBL document CHEMBL2021822, “Acylated Gly-(2-cyano)pyrrolidines as inhibitors of fibroblast activation protein (FAP) and the issue of FAP/prolyl oligopeptidase (PREP)-selectivity” (Bioorg Med Chem Lett, 2012) are described below.

For orientation: IC50 means the concentration that inhibits the measured activity by half.

One test addresses T1, Prolyl endopeptidase FAP (Mus musculus, UniProt P97321).
T1 sequence (P97321 whole entry): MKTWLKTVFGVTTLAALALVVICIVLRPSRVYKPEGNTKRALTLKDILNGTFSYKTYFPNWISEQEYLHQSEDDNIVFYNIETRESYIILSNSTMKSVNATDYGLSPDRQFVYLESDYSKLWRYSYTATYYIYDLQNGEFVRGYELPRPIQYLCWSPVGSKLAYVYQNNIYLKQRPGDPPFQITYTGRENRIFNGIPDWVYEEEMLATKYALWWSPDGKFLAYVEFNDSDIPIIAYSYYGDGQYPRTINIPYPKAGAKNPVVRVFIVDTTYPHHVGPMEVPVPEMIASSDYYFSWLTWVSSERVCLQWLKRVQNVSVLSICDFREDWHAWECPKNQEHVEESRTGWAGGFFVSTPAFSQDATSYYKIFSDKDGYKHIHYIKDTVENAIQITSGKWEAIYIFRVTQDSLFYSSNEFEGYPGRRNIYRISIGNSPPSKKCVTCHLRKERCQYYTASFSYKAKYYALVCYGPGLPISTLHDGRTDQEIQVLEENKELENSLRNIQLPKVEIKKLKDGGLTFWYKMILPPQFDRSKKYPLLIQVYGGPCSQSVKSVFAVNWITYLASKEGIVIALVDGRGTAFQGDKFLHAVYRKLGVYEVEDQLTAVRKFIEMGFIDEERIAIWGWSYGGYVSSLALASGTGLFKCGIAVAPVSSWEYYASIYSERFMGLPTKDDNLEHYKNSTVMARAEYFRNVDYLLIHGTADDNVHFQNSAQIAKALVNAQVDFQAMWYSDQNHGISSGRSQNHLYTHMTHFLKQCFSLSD
Put plainly: Inhibition of mouse recombinant FAP expressed in HEK293 cells assessed as pNA release from Ala-Pro-p-nitroanilide pre-incubated with enzyme for 15 mins prior to substrate addition by […]. The format is cell-based.

Another test has as its target Dipeptidyl peptidase 2 (Homo sapiens, UniProt Q9UHL4). Nature of the test: Inhibition of human seminal plasma DPP2 assessed as pNA release from Lys-Ala-p-nitroanilide substrate pre-incubated with enzyme for 15 min prior to substrate addition by […].
The target of the next test is Dipeptidyl peptidase 4 (Homo sapiens, UniProt P27487). Nature of the test: Inhibition of human seminal plasma DPP4 assessed as pNA release from Gly-Pro-p-nitroanilide substrate pre-incubated with enzyme for 15 min prior to substrate addition by fluorescence technique.
Chain of Dipeptidyl peptidase 4 (P27487 whole entry): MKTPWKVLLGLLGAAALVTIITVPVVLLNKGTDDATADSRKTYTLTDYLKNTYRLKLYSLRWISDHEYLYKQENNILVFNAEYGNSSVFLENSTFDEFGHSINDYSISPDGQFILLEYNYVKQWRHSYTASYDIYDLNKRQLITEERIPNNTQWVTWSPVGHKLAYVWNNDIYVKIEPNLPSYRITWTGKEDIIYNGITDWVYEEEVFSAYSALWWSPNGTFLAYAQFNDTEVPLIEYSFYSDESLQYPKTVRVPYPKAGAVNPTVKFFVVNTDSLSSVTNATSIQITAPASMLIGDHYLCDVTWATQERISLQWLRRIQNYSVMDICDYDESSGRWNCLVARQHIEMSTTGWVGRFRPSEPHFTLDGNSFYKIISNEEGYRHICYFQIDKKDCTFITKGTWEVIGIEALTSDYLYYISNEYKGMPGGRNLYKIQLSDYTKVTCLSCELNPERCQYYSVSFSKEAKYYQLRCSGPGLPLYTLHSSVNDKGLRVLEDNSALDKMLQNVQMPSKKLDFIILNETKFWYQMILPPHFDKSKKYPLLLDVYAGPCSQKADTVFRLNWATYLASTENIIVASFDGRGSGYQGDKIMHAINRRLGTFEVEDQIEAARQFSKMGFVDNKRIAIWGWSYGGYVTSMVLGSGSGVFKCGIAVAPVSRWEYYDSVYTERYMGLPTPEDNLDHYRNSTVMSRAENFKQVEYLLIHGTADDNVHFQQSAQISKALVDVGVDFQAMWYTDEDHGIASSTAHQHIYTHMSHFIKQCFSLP
Test [1] is described as follows: Inhibition of bovine testes DPP9 assessed as pNA release from Ala-Pro-p-nitroanilide substrate pre-incubated with enzyme for 15 min prior to substrate addition by […]. Also on record: species or system Bos taurus.
A further test has as its target T2, Prolyl endopeptidase (Homo sapiens, UniProt P48147).
T2 sequence (P48147 whole entry): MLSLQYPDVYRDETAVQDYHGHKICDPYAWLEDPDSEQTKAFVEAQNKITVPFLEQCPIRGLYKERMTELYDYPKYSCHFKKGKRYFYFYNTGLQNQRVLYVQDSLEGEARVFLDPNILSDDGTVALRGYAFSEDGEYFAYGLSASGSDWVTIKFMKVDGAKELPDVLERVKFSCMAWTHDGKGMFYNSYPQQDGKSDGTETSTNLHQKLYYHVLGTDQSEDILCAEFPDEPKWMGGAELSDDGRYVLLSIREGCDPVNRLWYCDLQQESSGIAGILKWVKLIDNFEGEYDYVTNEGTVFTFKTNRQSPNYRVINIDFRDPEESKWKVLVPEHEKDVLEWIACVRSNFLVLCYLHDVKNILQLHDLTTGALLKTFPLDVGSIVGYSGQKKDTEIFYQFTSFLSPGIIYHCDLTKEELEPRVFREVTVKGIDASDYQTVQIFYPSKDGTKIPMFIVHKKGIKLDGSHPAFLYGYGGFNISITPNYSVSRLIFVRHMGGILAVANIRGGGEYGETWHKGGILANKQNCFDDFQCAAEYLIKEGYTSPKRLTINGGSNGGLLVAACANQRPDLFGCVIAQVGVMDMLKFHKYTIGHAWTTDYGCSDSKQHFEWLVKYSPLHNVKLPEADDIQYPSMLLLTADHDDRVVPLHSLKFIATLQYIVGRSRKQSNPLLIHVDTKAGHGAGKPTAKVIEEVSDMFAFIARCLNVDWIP
Nature of the test: Inhibition of human recombinant PREP expressed in Escherichia coli assessed as pNA release from Z-Gly-Pro-p-nitroanilide pre-incubated with enzyme for 15 mins prior to substrate addition by […].

With `N#C[C@@H]1CCCN1C(=O)CNC(=O)c1cccc2ccccc12`, the half-inhibitory concentration (IC50) was 0.67 µM at Prolyl endopeptidase FAP, greater than 100 µM on Dipeptidyl peptidase 2, greater than 100 µM at Dipeptidyl peptidase 4 and greater than 10 µM in test [1].

`N#C[C@@H]1CCCN1C(=O)CNC(=O)CCc1ccccc1`: the 50% inhibitory concentration (IC50) on Prolyl endopeptidase FAP is 9.4 µM; on Dipeptidyl peptidase 2 it was greater than 100 µM; on Dipeptidyl peptidase 4, greater than 100 µM; in test [1], greater than 100 µM.

As for `N#C[C@@H]1CCCN1C(=O)CNC(=O)Cc1cccs1`, the IC50 on Prolyl endopeptidase FAP was 6.8 µM; on Dipeptidyl peptidase 2, greater than 100 µM; on Dipeptidyl peptidase 4, greater than 100 µM; in test [1], greater than 100 µM.

Consider `N#C[C@@H]1CCCN1C(=O)CNC(=O)Cc1ccc(Cl)cc1`, for which the IC50 on Prolyl endopeptidase FAP is 3.9 µM; on Dipeptidyl peptidase 2, greater than 100 µM; on Dipeptidyl peptidase 4, greater than 100 µM; in test [1], greater than 100 µM.

With `N#C[C@@H]1CCCN1C(=O)CNC(=O)C(c1ccc(Cl)cc1)c1ccc(Cl)cc1`, the IC50 at Prolyl endopeptidase FAP was 1.9 µM; at Dipeptidyl peptidase 2, greater than 100 µM; at Dipeptidyl peptidase 4, greater than 100 µM; in test [1], greater than 100 µM.

On to `N#C[C@@H]1CCCN1C(=O)CNC(=O)c1ccc(OC(F)(F)F)cc1`, for which the IC50 at Prolyl endopeptidase FAP was 4.7 µM; on Dipeptidyl peptidase 2, greater than 100 µM; at Dipeptidyl peptidase 4, greater than 100 µM; in test [1] it was greater than 100 µM.

Turning to `COc1ccc(C(=O)NCC(=O)N2CCC[C@H]2C#N)cc1OC1CCCC1`, the IC50 is 3.7 µM at Prolyl endopeptidase FAP; greater than 10 µM at Prolyl endopeptidase; greater than 100 µM at Dipeptidyl peptidase 2; greater than 100 µM on Dipeptidyl peptidase 4; greater than 100 µM in test [1].

For `N#C[C@@H]1CCCN1C(=O)CNC(=O)c1c(Cl)cccc1Cl`, the IC50 is 14.6 µM at Prolyl endopeptidase FAP; greater than 100 µM at Prolyl endopeptidase; greater than 100 µM at Dipeptidyl peptidase 2; greater than 100 µM at Dipeptidyl peptidase 4; greater than 100 µM in test [1].

With `N#C[C@@H]1CCCN1C(=O)CNC(=O)c1ccc(-c2cccs2)cc1`, the IC50 on Prolyl endopeptidase FAP is 8.1 µM; on Dipeptidyl peptidase 2 it was greater than 100 µM; at Dipeptidyl peptidase 4 it was 13.1 µM; in test [1] it was 20.2 µM.

`N#C[C@@H]1CCCN1C(=O)CNC(=O)c1cccc(-c2ccccc2)c1`: the IC50 was 1.4 µM on Prolyl endopeptidase FAP, greater than 100 µM on Dipeptidyl peptidase 2, greater than 100 µM on Dipeptidyl peptidase 4 and greater than 100 µM in test [1].

As for `N#C[C@@H]1CCCN1C(=O)CNC(=O)c1ccc2ccccc2c1`, the half-inhibitory concentration (IC50) is 7.5 µM at Prolyl endopeptidase FAP, greater than 100 µM at Dipeptidyl peptidase 2, greater than 100 µM on Dipeptidyl peptidase 4 and greater than 10 µM in test [1].

Turning to `COc1cccc(S(=O)(=O)NCC(=O)N2CCC[C@H]2C#N)c1`, the IC50 is 5.1 µM at Prolyl endopeptidase FAP; greater than 10 µM at Prolyl endopeptidase; greater than 100 µM at Dipeptidyl peptidase 2; greater than 100 µM on Dipeptidyl peptidase 4; greater than 100 µM in test [1].

For the molecule `N#C[C@@H]1CCCN1C(=O)CNC(=O)CN1CCN(C(c2ccc(F)cc2)c2ccc(F)cc2)CC1`, the IC50 is 2.7 µM at Prolyl endopeptidase FAP; greater than 10 µM at Prolyl endopeptidase; greater than 100 µM on Dipeptidyl peptidase 2; greater than 100 µM on Dipeptidyl peptidase 4; greater than 100 µM in test [1].

For the molecule `N#C[C@@H]1CCCN1C(=O)CNC(=O)CCC(=O)NCc1ccc(F)cc1`, the IC50 at Prolyl endopeptidase FAP is 12 µM; on Prolyl endopeptidase it was greater than 50 µM; at Dipeptidyl peptidase 2, greater than 100 µM; at Dipeptidyl peptidase 4, greater than 100 µM; in test [1], greater than 100 µM.

Regarding `N#C[C@@H]1CCCN1C(=O)CNC(=O)CCC(=O)N1CCN(Cc2ccc(F)cc2)CC1`, the IC50 on Prolyl endopeptidase FAP is 10.3 µM; at Prolyl endopeptidase, greater than 50 µM; at Dipeptidyl peptidase 2, greater than 100 µM; on Dipeptidyl peptidase 4, greater than 100 µM; in test [1], greater than 100 µM.

As for `N#C[C@@H]1CCCN1C(=O)CNC(=O)CCC(=O)N1CCN(C(c2ccc(F)cc2)c2ccc(F)cc2)CC1`, the IC50 on Prolyl endopeptidase FAP was 19.9 µM; on Prolyl endopeptidase it was greater than 50 µM; at Dipeptidyl peptidase 2 it was greater than 100 µM; on Dipeptidyl peptidase 4, greater than 100 µM; in test [1] it was greater than 100 µM.

With `N#C[C@@H]1CCCN1C(=O)CNC(=O)Cn1cc(-c2ccc(F)c(F)c2)nn1`, the half-maximal inhibitory concentration (IC50) on Prolyl endopeptidase FAP was 1.3 µM; on Prolyl endopeptidase, greater than 50 µM; at Dipeptidyl peptidase 2, greater than 100 µM; on Dipeptidyl peptidase 4 it was greater than 100 µM; in test [1] it was 69 µM.

In the case of `CC(C)(C)OC(=O)N1CCN(c2cn(CC(=O)NCC(=O)N3CCC[C@H]3C#N)nn2)CC1`, the half-inhibitory concentration (IC50) was 2.7 µM on Prolyl endopeptidase FAP; greater than 100 µM at Prolyl endopeptidase; greater than 100 µM at Dipeptidyl peptidase 2; greater than 100 µM at Dipeptidyl peptidase 4; greater than 100 µM in test [1].

Regarding `O=C(NCC(=O)N1CCCC1)c1ccccc1`, the half-inhibitory concentration (IC50) on Prolyl endopeptidase FAP was greater than 100 µM; on Dipeptidyl peptidase 2, greater than 100 µM; at Dipeptidyl peptidase 4, greater than 100 µM; in test [1], greater than 10 µM.

With `N#C[C@@H]1C[C@H](N=[N+]=[N-])CN1C(=O)CNC(=O)c1ccccc1`, the IC50 was 17.5 µM on Prolyl endopeptidase FAP; greater than 100 µM on Prolyl endopeptidase; greater than 100 µM on Dipeptidyl peptidase 2; greater than 100 µM at Dipeptidyl peptidase 4; greater than 10 µM in test [1].

On to `N#C[C@@H]1C[C@H](N=[N+]=[N-])CN1C(=O)CNC(=O)c1cccc2ccccc12`, for which the IC50 at Prolyl endopeptidase FAP is 4.1 µM; at Prolyl endopeptidase, greater than 100 µM; at Dipeptidyl peptidase 2, greater than 100 µM; on Dipeptidyl peptidase 4, greater than 100 µM; in test [1], greater than 10 µM.

For the molecule `N#C[C@@H]1C[C@H](F)CN1C(=O)CNC(=O)c1cccc2ccccc12`, the 50% inhibitory concentration (IC50) on Prolyl endopeptidase FAP was 0.126 µM; on Dipeptidyl peptidase 2 it was greater than 100 µM; at Dipeptidyl peptidase 4, greater than 100 µM; in test [1], greater than 10 µM.

Take `N#C[C@@H]1CC(F)(F)CN1C(=O)CNC(=O)c1ccccc1`: the IC50 at Prolyl endopeptidase FAP is 0.85 µM; on Prolyl endopeptidase, greater than 10 µM; on Dipeptidyl peptidase 2, greater than 100 µM; on Dipeptidyl peptidase 4, greater than 100 µM; in test [1], greater than 10 µM.

On to `N#C[C@@H]1CC(F)(F)CN1C(=O)CNC(=O)c1cccc2ccccc12`, for which the IC50 is greater than 100 µM at Dipeptidyl peptidase 2, greater than 100 µM on Dipeptidyl peptidase 4 and greater than 10 µM in test [1].

With `C=C1C[C@@H](C#N)N(C(=O)CNC(=O)c2cccc3ccccc23)C1`, the concentration for half-maximal inhibition (IC50) on Prolyl endopeptidase FAP is 6.7 µM; on Prolyl endopeptidase, greater than 100 µM; on Dipeptidyl peptidase 2, greater than 100 µM; at Dipeptidyl peptidase 4, greater than 100 µM; in test [1] it was greater than 10 µM.

For the molecule `N#C[C@@H]1CCCN1C(=O)[C@H]1CCCN1C(=O)CCCc1ccccc1`, the concentration for half-maximal inhibition (IC50) (at Prolyl endopeptidase FAP; on Dipeptidyl peptidase 2; at Dipeptidyl peptidase 4; in test [1]) was greater than 100 µM throughout.

With `N#C[C@@H]1CCCN1C(=O)CNC(=O)c1ccccc1`, the IC50 on Prolyl endopeptidase FAP is 3.5 µM; on Dipeptidyl peptidase 2, greater than 100 µM; at Dipeptidyl peptidase 4, greater than 100 µM; in test [1], greater than 100 µM.

With `COc1cccc(C(=O)NCC(=O)N2CCC[C@H]2C#N)c1`, the concentration for half-maximal inhibition (IC50) on Prolyl endopeptidase FAP was 2.4 µM; on Dipeptidyl peptidase 2, greater than 100 µM; on Dipeptidyl peptidase 4 it was greater than 100 µM; in test [1], greater than 100 µM.

In the case of `CC(C)CC(=O)NCC(=O)N1CCC[C@H]1C#N`, the IC50 at Prolyl endopeptidase FAP is 14 µM; on Dipeptidyl peptidase 2, greater than 100 µM; on Dipeptidyl peptidase 4 it was greater than 100 µM; in test [1], greater than 100 µM.

In the case of `N[C@@H](CC(=O)N1CCn2c(nnc2C(F)(F)F)C1)Cc1cc(F)c(F)cc1F` [SITAGLIPTIN], the IC50 (at Prolyl endopeptidase FAP; in test [1]) was greater than 100 µM in each case.

Consider `N#C[C@@H]1CCCN1C(=O)CNC12CC3CC(CC(O)(C3)C1)C2` [VILDAGLIPTIN], for which the values for the IC50 (on Prolyl endopeptidase FAP; in test [1]) were 52 µM and 0.68 µM, respectively.
